Experimental data as given in ChEMBL document CHEMBL1154951, “Discovery of potent and bioavailable GSK-3beta inhibitors” (Bioorg Med Chem Lett, 2010).
Converted amounts (≈) assume the structure as drawn.

Key:
[1] = target: Protein kinase C alpha type (Homo sapiens, UniProt P17252); assay: Inhibition of PKCalpha
[2] = target: Glycogen synthase kinase-3 beta (Homo sapiens, UniProt P49841); assay: Inhibition of human recombinant GSK3-beta assessed as [gamma33]ATP transfer to biotinylated CREB-peptide substrate after 1 hr by scintillation counting
Chain of Glycogen synthase kinase-3 beta (P49841 whole entry): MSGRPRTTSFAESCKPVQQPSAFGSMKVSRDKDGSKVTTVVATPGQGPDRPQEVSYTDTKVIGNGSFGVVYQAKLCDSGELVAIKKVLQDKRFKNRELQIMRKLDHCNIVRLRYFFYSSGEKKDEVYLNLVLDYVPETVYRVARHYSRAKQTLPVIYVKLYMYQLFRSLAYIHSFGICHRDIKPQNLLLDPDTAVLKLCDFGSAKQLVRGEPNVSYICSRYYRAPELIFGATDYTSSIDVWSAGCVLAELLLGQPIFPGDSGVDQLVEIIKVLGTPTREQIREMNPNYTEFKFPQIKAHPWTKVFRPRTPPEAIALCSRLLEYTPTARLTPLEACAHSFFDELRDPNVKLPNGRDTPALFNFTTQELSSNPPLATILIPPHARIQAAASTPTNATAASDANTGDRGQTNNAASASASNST

[3] = Aqueous solubility at pH 6.6; type: physicochemical

SMILES: Cn1cc(C2=C(c3cccnc3)C(=O)NC2=O)c2ccccc21
- IC50 [1]: > 30000 nM
- IC50 [2]: 42 nM

SMILES: Nc1nc(NCCNc2ncc(-c3ncc[nH]3)c(-c3ccc(Cl)cc3Cl)n2)ccc1[N+](=O)[O-]
- IC50 [2]: 0.56 nM

SMILES: Cn1cc(C2=C(c3cccc(NCCCO)c3)C(=O)NC2=O)c2ccccc21
- IC50 [1]: 740 nM
- IC50 [2]: 1 nM

SMILES: Cn1cc(C2=C(Sc3ccccc3)C(=O)NC2=O)c2ccccc21
- IC50 [2]: 2000 nM

SMILES: Cn1cc(C2=C(c3ccccc3Cl)C(=O)NC2=O)c2ccccc21
- IC50 [1]: 760 nM
- IC50 [2]: 3.6 nM

SMILES: Cn1cc(C2=C(c3cccc(OCC(O)CO)c3)C(=O)NC2=O)c2cc(F)ccc21 (racemic)
- solubility [3]: 2.8 µg/mL (≈ 6.82 µM)
- IC50 [1]: 2200 nM
- IC50 [2]: 1.8 nM

SMILES: Cn1cc(C2=C(N(C(=O)OC(C)(C)C)c3ccccc3)C(=O)NC2=O)c2ccccc21
- IC50 [2]: 3100 nM

SMILES: Cn1cc(C2=C(c3cccc(N)c3)C(=O)NC2=O)c2ccccc21
- IC50 [1]: 1900 nM
- IC50 [2]: 1.8 nM

SMILES: COc1cccc(C2=C(c3cn(C)c4cc(F)ccc34)C(=O)NC2=O)c1
- IC50 [1]: 4200 nM
- IC50 [2]: 31 nM

SMILES: Cn1cc(C2=C(c3cccs3)C(=O)NC2=O)c2ccccc21
- IC50 [1]: 8900 nM
- IC50 [2]: 22 nM

SMILES: COc1ccc(OC)c(C2=C(c3cn(C)c4ccccc34)C(=O)NC2=O)c1
- IC50 [1]: 380 nM
- IC50 [2]: 22 nM

SMILES: Cn1cc(C2=C(N3CCOCC3)C(=O)NC2=O)c2ccccc21
- IC50 [2]: 8200 nM

SMILES: COc1cccc(C2=C(c3cn(C)c4cccc(OC)c34)C(=O)NC2=O)c1
- IC50 [2]: 1300 nM
